# Measured values taken from PubChem BioAssay AID493211 (Johns Hopkins Ion Channel Center, 2011).
# The source made the active and inactive calls.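 The calls were made as follows: active = switches on the TRPC4 calcium channel at some tested dose and gives a concentration response curve; inactive = the rest.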
# Molecular target: TRPC4 (mouse), transient receptor potential cation channel C4
# Experiment: TRPC4 channel activators, dose response, cell-based, HEK293 TRPC4/mu-opioid, Fluo-4 calcium flux (AID 493211)
# Details: HEK293 TRPC4/mu-opioid cells, Fluo-4 calcium fluorescence ratio
row,SMILES,EC50
1,CN1CCN(c2ccc([N+](=O)[O-])c3cccnc23)CC1,9.12 nM

# Same assay, conditions: HEK293 TRPC4/mu-opioid cells, Fluo-4 calcium fluorescence ratio; at 20 µM (top of the series)
row,SMILES,"fluorescence ratio, percent of baseline (100 = none)"
1,COc1ccccc1N1CCN(c2ccc([N+](=O)[O-])c3cccnc23)CC1,inactive
2,CCN(CC)c1ccc([N+](=O)[O-])c2cccnc12,inactive
3,O=C1NCCC1Nc1ccc([N+](=O)[O-])c2cccnc12 (stereo not drawn),inactive
4,O=[N+]([O-])c1ccc(N2CCN(c3ccccn3)CC2)c2ncccc12,inactive
5,COC(=O)C1CCCN(c2ccc([N+](=O)[O-])c3cccnc23)C1 (stereo not drawn),inactive
6,N#Cc1ccccc1N1CCN(c2ccc([N+](=O)[O-])c3cccnc23)CC1,inactive
7,O=[N+]([O-])c1ccc(N2CCOCC2)c2ncccc12,inactive
8,O=[N+]([O-])c1ccc(N2CCN(c3ncccn3)CC2)c2ncccc12,inactive
9,O=[N+]([O-])c1ccc(N2CCN(c3ccc(F)cc3F)CC2)c2ncccc12,inactive
10,CCOC(=O)NC1CCN(c2ccc([N+](=O)[O-])c3cccnc23)CC1,inactive
11,N#Cc1ccccc1C1CCN(c2ccc([N+](=O)[O-])c3cccnc23)CC1,inactive
12,O=C1CC(Nc2ccc([N+](=O)[O-])c3cccnc23)CN1 (stereo not drawn),inactive
13,COc1ccc(N2CCN(c3ccc([N+](=O)[O-])c4cccnc34)CC2)cc1,inactive
14,CC1CC(C)CN(c2ccc([N+](=O)[O-])c3cccnc23)C1 (stereo not drawn),inactive
15,CC(C)(C)OC(=O)N1CCN(c2ccc([N+](=O)[O-])c3cccnc23)CC1,inactive
16,C[C@@H]1CN(c2ccc([N+](=O)[O-])c3cccnc23)[C@@H](C)CN1,inactive
17,O=[N+]([O-])c1ccc(N2CCOc3ccccc32)c2ncccc12,inactive
18,C[C@H]1CCCN1c1ccc([N+](=O)[O-])c2cccnc12,inactive
19,O=[N+]([O-])c1ccc(N2CCC2)c2ncccc12,inactive
20,O=[N+]([O-])c1ccc(N2CCC3(C=Cc4ccccc43)CC2)c2ncccc12,inactive
21,O=[N+]([O-])c1ccc(N2CCN(c3ccncc3)CC2)c2ncccc12,inactive
22,O=[N+]([O-])c1ccc(N2CCC3(CCc4ccccc43)CC2)c2ncccc12,inactive
